Test results: ChEMBL document CHEMBL1126039, “Synthesis and antiviral activity of 1-cyclobutyl-5-(2-bromovinyl)uracil nucleoside analogues and related compounds” (J Med Chem, 1992)

What was measured:
WI-38 [1] = experiment: Anti viral activity against HCMV(AD169) in WI-38 cell monolayers; format: functional; settings: Homo sapiens, read-out: ID50 (the source's name)
WI-38 [2] = experiment: Anti viral activity against HSV-1(Schooler) in WI-38 cell monolayers; format: functional; settings: Homo sapiens, read-out: ID50 (the source's name)
WI-38 [3] = experiment: Anti viral activity against HSV-2(186) in WI-38 cell monolayers; format: functional; settings: Homo sapiens, read-out: ID50 (the source's name)
WI-38 [4] = experiment: Anti viral activity against VZV(40a2 (TK-) strain) in WI-38 cell monolayers.; format: functional; settings: Homo sapiens, read-out: ID50 (the source's name)
WI-38 [5] = experiment: Anti viral activity against VZV(9021 strain) in WI-38 cell monolayers.; format: functional; settings: Homo sapiens, read-out: ID50 (the source's name)
WI-38 [6] = experiment: Anti viral activity against VZV(Ellen strain) in WI-38 cell monolayers.; format: functional; settings: Homo sapiens, read-out: ID50 (the source's name)
WI-38 [7] = experiment: Anti viral activity against VZV(Ito strain) in WI-38 cell monolayers.; format: functional; settings: Homo sapiens, read-out: ID50 (the source's name)
WI-38 [8] = experiment: Anti viral activity against VZV (Kanno-Kohmura(TK-) strain) in WI-38 cell monolayers.; format: functional; settings: Homo sapiens, read-out: ID50 (the source's name)
WI-38 [9] = experiment: Anti viral activity against VZV(Oka strain) in WI-38 cell monolayers.; format: functional; settings: Homo sapiens, read-out: ID50 (the source's name)
WI-38 [10] = experiment: Anti viral activity against VZV(pplla strain) in WI-38 cell monolayers.; format: functional; settings: Homo sapiens, read-out: ID50 (the source's name)
WI-38 [11] = experiment: Growth inhibitory activity against WI-38 cells; format: functional; settings: Homo sapiens, read-out: ID50 (the source's name)
[12] = Therapeutic index of compound maesured as ratio of ID50 for WI-38 cell growth inhibition / ID50 anti-VZV (strain Ellen); format: cell-based; settings: human, WI-38 cells; read-out: Therapeutic index
[13] = target: T1, Thymidine kinase, cytosolic (Homo sapiens) (UniProt P04183); settings: Human alphaherpesvirus 3
T1 sequence (whole entry): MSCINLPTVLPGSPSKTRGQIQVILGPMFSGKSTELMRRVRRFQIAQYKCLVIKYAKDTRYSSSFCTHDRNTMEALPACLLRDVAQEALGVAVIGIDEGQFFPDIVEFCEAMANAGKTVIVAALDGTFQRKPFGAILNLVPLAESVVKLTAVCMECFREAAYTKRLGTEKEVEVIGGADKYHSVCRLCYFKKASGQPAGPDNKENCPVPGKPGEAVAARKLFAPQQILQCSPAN

[14] = target: T1, Thymidine kinase, cytosolic (Homo sapiens); settings: Human alphaherpesvirus 3; remark: listed apart in the source
WI-38 [15] = experiment: Anti viral activity against HSV-1 in WI-38 cell monolayers.; format: functional; settings: Homo sapiens, read-out: ID50 (the source's name)
WI-38 [16] = experiment: Anti viral activity against HSV-2 in WI-38 cell monolayers.; format: functional; settings: Homo sapiens, read-out: ID50 (the source's name)
WI-38 [17] = experiment: Anti viral activity against VZV in WI-38 cell monolayers.; format: functional; settings: Homo sapiens, read-out: ID50 (the source's name)
WI-38 [18] = experiment: Anti viral activity against HCMV in WI-38 cell monolayers.; format: functional; settings: Homo sapiens, read-out: ID50 (the source's name)

SMILES | IC50 (WI-38 [1]) | IC50 (WI-38 [2]) | IC50 (WI-38 [3]) | IC50 (WI-38 [4]) | IC50 (WI-38 [5]) | IC50 (WI-38 [6]) | IC50 (WI-38 [7]) | IC50 (WI-38 [8]) | IC50 (WI-38 [9]) | IC50 (WI-38 [10]) | IC50 (WI-38 [11]) | selectivity ratio [12] | Kinase activity (pM min-1*ml-1) [13] | Kinase activity (pM min-1*ml-1) [14] | IC50 (WI-38 [15]) | IC50 (WI-38 [16]) | IC50 (WI-38 [17]) | IC50 (WI-38 [18])
O=c1[nH]c(=O)n(C2CC(CO)C2CO)cc1/C=C/Br (racemic) | > 300000 nM | > 6000 nM | > 300000 nM | > 300000 nM | 600 nM | 150 nM | 150 nM | > 300000 nM | 600 nM | 200 nM | > 750000 nM | > 2.5 | 1280 | – | – | – | – | –
O=c1[nH]c(=O)n([C@@H]2C[C@H](CO)C2CO)cc1/C=C/Br (stereo partly specified) | > 300000 nM | 3000 nM | > 300000 nM | – | 150 nM | 200 nM | 15 nM | 150000 nM | – | 200 nM | > 750000 nM | > 1.3 | 63 | – | – | – | – | –
O=c1[nH]c(=O)n([C@@H]2O[C@H](CO)[C@@H](O)[C@@H]2O)cc1/C=C/Br [SORIVUDINE] | > 290000 nM | 140 nM | 120000 nM | – | 3 nM | 3 nM | 7 nM | > 72000 nM | 3 nM | 3 nM | > 75000 nM | > 7.5 | 140 | 95 | – | – | – | –
O=c1[nH]c(=O)n([C@@H]2C[C@H](CO)C2CO)cc1I (stereo partly specified) | – | – | – | – | – | 28000 nM | – | – | – | – | – | – | – | – | 14000 nM | – | – | –
O=c1[nH]c(=O)n([C@@H]2C[C@H](CO)C2CO)cc1/C=C/Cl (stereo partly specified) | 350000 nM | 3500 nM | > 280000 nM | – | 1100 nM | 400 nM | 50 nM | > 220000 nM | – | – | > 400000 nM | > 2 | 333 | – | – | – | – | –
Nc1nc2c(ncn2COCCO)c(=O)[nH]1 [ACYCLOVIR] | 40000 nM | 200 nM | 800 nM | – | – | – | – | – | – | – | > 750000 nM | – | 13 | – | – | – | – | –
Cc1cn([C@H]2C[C@H](O)[C@@H](CO)O2)c(=O)[nH]c1=O | – | – | – | – | – | – | – | – | – | – | – | – | 585 | 174 | – | – | – | –
O=c1[nH]c(=O)n([C@@H]2C[C@H](CO)C2CO)cc1/C=C/I (stereo partly specified) | 260000 nM | 13000 nM | > 260000 nM | – | 130 nM | 50 nM | 100 nM | > 260000 nM | – | 260 nM | > 800000 nM | > 2.7 | 736 | – | – | – | – | –
O=c1[nH]c(=O)n([C@@H]2C[C@H](CO)C2O)cc1I (stereo partly specified) | – | – | – | – | – | – | – | – | – | – | – | – | – | – | > 300000 nM | > 300000 nM | > 300000 nM | > 300000 nM
